Data: patent US20210238173A1, “MITOGEN-ACTIVATED PROTEIN KINASE KINASE 7 INHIBITORS” (Yeda Research and Development Co. Ltd., priority 2018, published 2021)
pEC50: −log10 of the molar value.

Legend:
[1] = target: TAOK2 (TAO1) (Homo sapiens, UniProt Q9UL54); assay: Kinome selectivity screen TAOK2; assay type: biochemical; conditions: 1 μM compound
Method: (§1) Kinome Selectivity Screen:
(§2) Kinase selectivity was assessed using the Life Technologies SelectScreen Kinase Profiling Service in a custom panel of 76 kinases selected to provide broad representative coverage of all kinase families. Kinase activity assays employed either the Z′-LYTE or Adapta assay technologies with ATP concentrations at or near the KM, ATP for each kinase and a test compound concentration of 1 μM.

[2] = target: PHKG2 (Homo sapiens, UniProt P15735); assay: Kinome selectivity screen PHKG2; assay type: biochemical; conditions: 1 μM compound
PHKG2, sequence (P15735 whole entry): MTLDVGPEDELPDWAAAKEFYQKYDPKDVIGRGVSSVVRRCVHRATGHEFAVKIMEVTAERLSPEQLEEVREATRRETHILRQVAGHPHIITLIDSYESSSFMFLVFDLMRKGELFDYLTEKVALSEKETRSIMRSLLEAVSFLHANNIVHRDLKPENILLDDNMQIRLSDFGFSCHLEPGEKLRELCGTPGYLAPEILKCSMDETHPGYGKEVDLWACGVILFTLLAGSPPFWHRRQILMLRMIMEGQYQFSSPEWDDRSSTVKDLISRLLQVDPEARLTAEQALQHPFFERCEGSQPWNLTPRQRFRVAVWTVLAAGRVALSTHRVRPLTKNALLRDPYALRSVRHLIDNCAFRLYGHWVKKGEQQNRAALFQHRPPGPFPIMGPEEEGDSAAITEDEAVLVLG
Method: as §1, §2

[3] = target: MARK1 (MARK) (Homo sapiens, UniProt Q9P0L2); assay: Kinome selectivity screen MARK1; assay type: biochemical; conditions: 1 μM compound
Method: as §1, §2

[4] = target: PDK1 Direct (Homo sapiens, UniProt O15530); assay: Kinome selectivity screen PDK1 Direct; assay type: biochemical; conditions: 1 μM compound
PDK1 Direct, sequence (O15530 whole entry): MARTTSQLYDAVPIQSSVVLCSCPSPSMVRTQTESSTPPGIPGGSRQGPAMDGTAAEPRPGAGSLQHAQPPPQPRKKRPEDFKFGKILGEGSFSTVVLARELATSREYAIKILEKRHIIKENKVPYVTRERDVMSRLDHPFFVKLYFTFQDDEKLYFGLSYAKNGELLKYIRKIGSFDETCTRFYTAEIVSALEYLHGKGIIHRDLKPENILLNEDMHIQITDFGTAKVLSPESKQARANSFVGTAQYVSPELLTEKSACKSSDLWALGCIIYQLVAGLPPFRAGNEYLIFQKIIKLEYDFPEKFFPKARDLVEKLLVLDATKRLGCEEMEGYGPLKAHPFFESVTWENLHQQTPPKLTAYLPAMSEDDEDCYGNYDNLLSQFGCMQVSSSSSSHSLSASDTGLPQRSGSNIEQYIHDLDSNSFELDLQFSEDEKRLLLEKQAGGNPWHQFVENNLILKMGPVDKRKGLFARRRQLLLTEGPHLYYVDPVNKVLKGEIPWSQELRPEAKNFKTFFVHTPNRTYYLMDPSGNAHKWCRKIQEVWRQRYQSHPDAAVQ
Method: as §1, §2

[5] = target: MAP3K8 (COT) (Homo sapiens, UniProt P41279); assay: Kinome selectivity screen MAP3K8; assay type: biochemical; conditions: 1 μM compound
Method: as §1, §2

[6] = target: MAP4K4 (HGK) (Homo sapiens, UniProt O95819); assay: Kinome selectivity screen MAP4K4; assay type: biochemical; conditions: 1 μM compound
MAP4K4 (HGK), sequence (O95819 whole entry): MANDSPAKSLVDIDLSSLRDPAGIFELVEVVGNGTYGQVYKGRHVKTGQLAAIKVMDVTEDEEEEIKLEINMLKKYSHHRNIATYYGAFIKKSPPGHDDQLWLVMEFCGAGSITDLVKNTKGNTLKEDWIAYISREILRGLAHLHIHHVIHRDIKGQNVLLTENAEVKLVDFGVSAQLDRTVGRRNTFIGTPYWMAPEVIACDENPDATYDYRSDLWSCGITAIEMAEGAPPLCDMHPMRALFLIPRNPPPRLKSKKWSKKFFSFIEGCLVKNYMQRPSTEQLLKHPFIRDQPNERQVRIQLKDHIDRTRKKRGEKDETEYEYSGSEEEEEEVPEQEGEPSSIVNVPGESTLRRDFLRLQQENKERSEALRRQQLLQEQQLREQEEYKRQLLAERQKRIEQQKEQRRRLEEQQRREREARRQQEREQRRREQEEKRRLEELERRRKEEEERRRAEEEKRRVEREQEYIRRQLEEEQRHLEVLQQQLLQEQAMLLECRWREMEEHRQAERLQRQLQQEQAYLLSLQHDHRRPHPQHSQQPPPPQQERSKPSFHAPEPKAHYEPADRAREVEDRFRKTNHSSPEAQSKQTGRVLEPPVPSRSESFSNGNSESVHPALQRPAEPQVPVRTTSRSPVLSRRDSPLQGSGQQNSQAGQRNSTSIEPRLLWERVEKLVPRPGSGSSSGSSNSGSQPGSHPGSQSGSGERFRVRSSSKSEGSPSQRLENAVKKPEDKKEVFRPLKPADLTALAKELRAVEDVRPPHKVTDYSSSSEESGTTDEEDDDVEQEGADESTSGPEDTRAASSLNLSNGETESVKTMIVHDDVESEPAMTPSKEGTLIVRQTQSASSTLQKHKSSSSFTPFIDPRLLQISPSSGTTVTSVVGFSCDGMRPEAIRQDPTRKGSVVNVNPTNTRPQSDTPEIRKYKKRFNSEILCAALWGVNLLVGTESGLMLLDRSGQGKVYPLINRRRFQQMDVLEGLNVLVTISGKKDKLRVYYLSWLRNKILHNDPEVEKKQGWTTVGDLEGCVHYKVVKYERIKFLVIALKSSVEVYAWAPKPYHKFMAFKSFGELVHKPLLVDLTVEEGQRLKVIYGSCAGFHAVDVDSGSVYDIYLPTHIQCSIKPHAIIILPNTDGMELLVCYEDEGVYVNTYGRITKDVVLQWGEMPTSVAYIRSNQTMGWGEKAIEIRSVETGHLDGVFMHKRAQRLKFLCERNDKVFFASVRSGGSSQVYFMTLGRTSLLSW
Method: as §1, §2

[7] = target: MET (cMet) (Homo sapiens, UniProt P08581); assay: Kinome selectivity screen MET; assay type: biochemical; conditions: 1 μM compound
MET (cMet), sequence (P08581 25-1390): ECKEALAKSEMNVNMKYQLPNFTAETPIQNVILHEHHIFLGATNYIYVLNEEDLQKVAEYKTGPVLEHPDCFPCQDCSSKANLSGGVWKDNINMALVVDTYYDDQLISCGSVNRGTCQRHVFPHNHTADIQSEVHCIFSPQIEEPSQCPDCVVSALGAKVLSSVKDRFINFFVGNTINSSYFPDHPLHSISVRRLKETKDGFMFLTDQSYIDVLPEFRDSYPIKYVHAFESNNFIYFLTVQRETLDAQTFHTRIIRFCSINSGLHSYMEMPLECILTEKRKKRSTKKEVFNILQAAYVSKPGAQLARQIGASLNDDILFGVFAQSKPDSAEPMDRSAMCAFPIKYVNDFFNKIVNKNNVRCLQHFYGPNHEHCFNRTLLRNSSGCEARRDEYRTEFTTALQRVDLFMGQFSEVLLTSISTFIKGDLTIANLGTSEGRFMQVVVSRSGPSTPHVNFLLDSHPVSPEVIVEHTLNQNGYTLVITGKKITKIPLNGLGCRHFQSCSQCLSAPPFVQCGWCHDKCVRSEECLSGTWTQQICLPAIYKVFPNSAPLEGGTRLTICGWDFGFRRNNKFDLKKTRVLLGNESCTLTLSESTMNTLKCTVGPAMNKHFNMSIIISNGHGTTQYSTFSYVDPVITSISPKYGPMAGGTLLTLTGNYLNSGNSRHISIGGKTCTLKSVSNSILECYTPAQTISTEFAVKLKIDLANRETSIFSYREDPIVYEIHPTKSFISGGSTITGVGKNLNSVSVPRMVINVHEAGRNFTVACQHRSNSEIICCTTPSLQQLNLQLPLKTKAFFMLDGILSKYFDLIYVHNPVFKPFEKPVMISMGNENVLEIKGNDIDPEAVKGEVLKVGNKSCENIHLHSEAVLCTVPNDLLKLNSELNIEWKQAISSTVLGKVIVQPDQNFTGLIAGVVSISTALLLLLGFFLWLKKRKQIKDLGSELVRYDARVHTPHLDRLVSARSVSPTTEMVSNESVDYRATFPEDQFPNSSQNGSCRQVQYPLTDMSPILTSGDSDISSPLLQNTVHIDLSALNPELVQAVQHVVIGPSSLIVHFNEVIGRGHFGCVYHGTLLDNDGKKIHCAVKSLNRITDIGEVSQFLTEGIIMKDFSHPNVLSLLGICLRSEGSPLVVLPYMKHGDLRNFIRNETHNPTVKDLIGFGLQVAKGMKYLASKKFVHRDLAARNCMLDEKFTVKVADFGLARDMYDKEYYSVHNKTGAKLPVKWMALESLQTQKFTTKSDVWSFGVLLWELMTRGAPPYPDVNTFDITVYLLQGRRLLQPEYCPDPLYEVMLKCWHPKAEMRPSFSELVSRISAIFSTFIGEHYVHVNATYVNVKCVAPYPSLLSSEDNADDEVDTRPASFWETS
Method: as §1, §2

[8] = target: KDR (VEGFR2) (Homo sapiens, UniProt P35968); assay: Kinome selectivity screen KDR; assay type: biochemical; conditions: 1 μM compound
Method: as §1, §2

[9] = target: BTK (Homo sapiens, UniProt Q06187); assay: Kinome selectivity screen BTK; assay type: biochemical; conditions: 1 μM compound
Method: as §1, §2

[10] = target: PAK4 (Homo sapiens, UniProt O96013); assay: Kinome selectivity screen PAK4; assay type: biochemical; conditions: 1 μM compound
Method: as §1, §2

[11] = target: NTRK1 (TRKA) (Homo sapiens, UniProt P04629); assay: Kinome selectivity screen NTRK1; assay type: biochemical; conditions: 1 μM compound
NTRK1 (TRKA), sequence (P04629 33-796): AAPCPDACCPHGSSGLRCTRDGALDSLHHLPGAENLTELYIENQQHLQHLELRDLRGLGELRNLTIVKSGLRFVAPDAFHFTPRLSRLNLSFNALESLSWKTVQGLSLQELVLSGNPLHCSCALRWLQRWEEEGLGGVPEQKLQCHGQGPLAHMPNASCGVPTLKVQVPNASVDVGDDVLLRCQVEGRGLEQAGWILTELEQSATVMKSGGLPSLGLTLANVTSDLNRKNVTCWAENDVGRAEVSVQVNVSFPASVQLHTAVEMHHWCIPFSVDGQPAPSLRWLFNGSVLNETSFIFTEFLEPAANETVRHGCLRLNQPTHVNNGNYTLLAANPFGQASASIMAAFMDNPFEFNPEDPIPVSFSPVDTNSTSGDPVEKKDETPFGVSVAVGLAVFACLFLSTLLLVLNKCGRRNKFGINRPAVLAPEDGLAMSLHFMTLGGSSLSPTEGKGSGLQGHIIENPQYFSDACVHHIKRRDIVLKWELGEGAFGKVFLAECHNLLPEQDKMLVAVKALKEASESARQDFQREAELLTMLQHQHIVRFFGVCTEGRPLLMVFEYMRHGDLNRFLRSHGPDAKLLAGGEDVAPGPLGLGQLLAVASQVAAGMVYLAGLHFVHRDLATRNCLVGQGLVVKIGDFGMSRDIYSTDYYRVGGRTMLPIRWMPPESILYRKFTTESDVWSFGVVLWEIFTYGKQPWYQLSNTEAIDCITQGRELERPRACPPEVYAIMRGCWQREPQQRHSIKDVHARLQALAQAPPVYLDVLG
Method: as §1, §2

[12] = target: NEK1 (Homo sapiens, UniProt Q96PY6); assay: Kinome selectivity screen NEK1; assay type: biochemical; conditions: 1 μM compound
Method: as §1, §2

[13] = target: RET (Homo sapiens, UniProt P07949); assay: Kinome selectivity screen RET; assay type: biochemical; conditions: 1 μM compound
Method: as §1, §2

[14] = target: FGFR1 (Homo sapiens, UniProt P11362); assay: Kinome selectivity screen FGFR1; assay type: biochemical; conditions: 1 μM compound
Method: as §1, §2

[15] = target: GSK3B (GSK3 beta) (Homo sapiens, UniProt P49841); assay: Kinome selectivity screen GSK3B; assay type: biochemical; conditions: 1 μM compound
GSK3B (GSK3 beta), sequence (P49841 whole entry): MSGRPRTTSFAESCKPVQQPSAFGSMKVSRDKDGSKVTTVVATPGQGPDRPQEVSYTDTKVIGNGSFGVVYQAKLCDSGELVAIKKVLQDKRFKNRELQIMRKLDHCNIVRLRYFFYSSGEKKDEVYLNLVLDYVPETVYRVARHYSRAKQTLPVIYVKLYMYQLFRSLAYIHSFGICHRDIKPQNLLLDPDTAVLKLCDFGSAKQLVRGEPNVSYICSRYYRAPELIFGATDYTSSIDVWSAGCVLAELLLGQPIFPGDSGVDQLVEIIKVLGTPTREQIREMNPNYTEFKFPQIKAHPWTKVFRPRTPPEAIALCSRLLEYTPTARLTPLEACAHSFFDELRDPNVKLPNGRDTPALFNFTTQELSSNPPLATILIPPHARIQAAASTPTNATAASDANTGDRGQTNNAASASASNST
Method: as §1, §2

[16] = target: CDK9/cyclin T1 (Homo sapiens, UniProt P50750); assay: Kinome selectivity screen CDK9/cyclin T1; assay type: biochemical; conditions: 1 μM compound
Method: as §1, §2

[17] = target: PRKG2 (PKG2) (Homo sapiens, UniProt Q13237); assay: Kinome selectivity screen PRKG2; assay type: biochemical; conditions: 1 μM compound
Method: as §1, §2

[18] = test system: pERK in HEK293 cells; assay: pERK response in HEK293 cells; assay type: cell-based; conditions: at 10 μM
Method: (§3) To rapidly assess the cellular activity (EC50) with full dose response curves of the MKK7 covalent inhibitors, according to some embodiments of the present invention, an in-cell western assay was adapted to a 384 well plate format over traditional western blot, and monitored phospho-JNK (pJNK) levels in response to osmotic shock. We first characterized the dynamics of pJNK in response to sorbitol. Sufficient dynamic range for pJNK is achieved at 20 minutes in HEK293 cells and at 40 minutes in 3T3 and Beas2B cells. The compound's activity was assessed by pre-treating cells with either compound or DMSO for 2 hours, followed by Sorbitol stimulation. The response of pJNK, and its substrates, pc-Jun and pATF2, was measured, as well as pP38, which is a substrate of MKK4 but not MKK7, and pERK in HEK293 cells, and the results are presented in Table 5 below.
(§4) With similar values for pcJun (2.26 μM and 1.67 μM, respectively) and pATF2 (2.79 μM 5.19 μM, respectively).

[19] = test system: p-cJun in HEK293 cells; assay: p-cJun inhibition in HEK293 cells; assay type: cell-based; conditions: Homo sapiens
Method: HEK293, Beas2B and 3T3 cells were plated 24 hours before procedure on 384 well clear bottom black flat plates (Corning) pre-coated with Fibronectin (Sigma) diluted in PBS to a concentration of 5 μg/ml 45 minutes prior to cells introduction. Cells were plated using Multidrop™ Combi reagent dispenser (Thermo Fisher Scientific). Compound, reagents and antibody dispensing as well as washes were performed with a CyBio liquid handler (Analytik). Cells were pre-incubated with a small molecule or up to 1% DMSO for 2 h before fixation. HEK293, 3T3 or Beas2B cells were treated with 0.6M/0.2M/0.2M D-Sorbitol/PBS (Sigma) for 20/40/40 min. respectively, before fixation. Media was removed and wells were immediately fixed with 150 μl per well of 3.7% formaldehyde/PBS fixing solution for 20 min. Formaldehyde was then aspired and cells were permeabilized with 150 μl of 0.5% Triton x-100/PBS solution for 10 min. After aspiration cells were washed with ice-cold methanol and stored at −20° C., for 10 min. Methanol was aspired and cells were blocked with 150 μl blocking buffer (LICOR) for 90 min. Primary antibody Phospho-SAPK/JNK T183/Y185 (CST; 9251S) was diluted 1:1000 in blocking buffer and was applied 50 μl per well, except control wells to which only blocking buffer was applied, O.N. (16 h) at 4° C. with mild shaking. […] Wells signals were analyzed with Odyssey software. […]
as §3, with “We first characterized the dynamics of pJNK in response to sorbitol. Sufficient dynamic range for pJNK is achieved at 20 minutes in HEK293 cells and at 40 minutes in 3T3 and Beas2B cells.” left out

[20] = target: IRAK4 (Homo sapiens, UniProt Q9NWZ3); assay: Kinome selectivity screen IRAK4; assay type: biochemical; conditions: 1 μM compound
Method: as §1, §2

[21] = target: INSR (Homo sapiens, UniProt P06213); assay: Kinome selectivity screen INSR; assay type: biochemical; conditions: 1 μM compound
Method: as §1, §2

[22] = test system: pP38 in HEK293 cells; assay: pP38 response in HEK293 cells; assay type: cell-based; conditions: at 10 μM
Method: as §3, §4

| inhibition at 1 µM [1] [%] | inhibition at 1 µM [2] [%] | inhibition at 1 µM [3] [%] | inhibition at 1 µM [4] [%] | inhibition at 1 µM [5] [%] | inhibition at 1 µM [6] [%] | inhibition at 1 µM [7] [%] | inhibition at 1 µM [8] [%] | inhibition at 1 µM [9] [%] | inhibition at 1 µM [10] [%] | inhibition at 1 µM [11] [%] | inhibition at 1 µM [12] [%] | inhibition at 1 µM [13] [%] | inhibition at 1 µM [14] [%] | inhibition at 1 µM [15] [%] | inhibition at 1 µM [16] [%] | inhibition at 1 µM [17] [%] | inhibition at 1 µM [20] [%] | inhibition at 1 µM [21] [%] | SMILES | pEC50 [19] | also measured |
| --- | --- | --- | --- | --- | --- | --- | --- | --- | --- | --- | --- | --- | --- | --- | --- | --- | --- | --- | --- | --- | --- |
| 12 | 1 | 14 | 22 | -7 | 58 | 9 | 4 | 11 | -11 | 22 | 5 | 6 | 2 | -10 | 3 | -2 | 15 | -10 | C=CC(=O)Nc1cccc(-c2n[nH]c3ccccc23)c1 [GO32] | 5.65 | decrease in pERK [18]: about 25%; effect on pP38 levels [22]: no effect |
| 14 | 7 | 4 | 26 | -12 | 42 | 13 | 6 | 15 | -16 | 44 | 2 | 5 | -2 | -8 | 5 | 0 | 12 | -7 | C=CC(=O)Nc1cccc(-c2n[nH]c3cc(C)ccc23)c1 [GO80] | 5.78 | effect on pERK levels [18]: did not affect; effect on pP38 levels [22]: did not affect |
